Data taken from PMC2361514 (British Journal of Cancer, 2005).
Read-outs that look alike come from different tables or passages of the source. Marks after values point to notes of the source that are not given here. Blank lines part the entries; values can stand above or below the compound they belong to.

Columns and labels:
cancer patients = conditions: cited from earlier work; for MTD: ref Adjei et al, 2003b
[1] = Plasma pharmacokinetics of gemcitabine and dFdU (HPLC) with or without tipifarnib; conditions: for AUC(0-t) / Cmax: 750 mg
Method: (§1) In cycle 2, tipifarnib pharmacokinetics was then determined on day 2. For gemcitabine, 2 ml blood samples were taken at 0, 15, 30, 35, 45, 60, 90 min and at 2, 2.5, 24, 32 and 48 h after the start of the 30 min infusion during cycle 1 and at 0, 15, 30, 35, 45, 60, 90 min during cycle 2. Both gemcitabine and its metabolite 2′, 2′ -difluoro-2′-deoxy-uridine (dFdU) were measured in plasma. Of each blood sample, 1 ml was added to 10 μl of tetrahydrouridine (10 mg ml^−1), after which it was centrifuged for 5 min at 4°C and 1500 g. Subsequently, the plasma layer was stored at −20°C until analysis. Additionally, 15 ml blood samples were taken at 0, 1.5, 4 and 24 h after the start of the gemcitabine infusion for the determination of the triphosphate metabolite of gemcitabine (dFdCTP) in WBC ([Sparidans et al, 2002]). Isolation of WBC was performed using a Ficoll density gradient (Pharmacia, Sweden) as described previously ([Heinemann et al, 1998]). All gemcitabine levels were measured using a validated high-performance liquid chromatography (HPLC) method, analogous to the method of [Freeman et al (1995)]. […] Blood samples were immediately centrifuged for 5 min at 4°C and 1500 g. Unbound platinum was obtained by ultrafiltration using the MPS-1 system equipped with 3 kDa YMT membranes (Amicon Division, Danvers, MA, USA). The resulting plasma ultrafiltrate and total plasma were immediately stored at −20°C until analysis by atomic absorption spectrometry (AAS) ([Van Warmerdam et al, 1995]). […] For tipifarnib, 5 ml blood samples were drawn at 0, 1, 2, 3, 5, 8 and 12 h after the morning dose. Immediately after collection, the blood samples were centrifuged for 5 min at 4°C at 1500 g. Separated plasma was stored at −20°C for subsequent drug analysis by a validated HPLC method with UV detection ([Zujewski et al, 2000]).
(§2) The following pharmacokinetic parameters were determined using noncompartmental analysis with WinNonLin software (version 4.1, Pharsight Corporation, Mountain View, CA, USA): the maximum plasma concentration (Cmax), time to maximum plasma concentration (tmax), the elimination half-life (t1/2), the area under the plasma concentration–time curve from 0 to 48 h (AUC0–48) of gemcitabine and dFdU and the AUC0–23 for total and unbound (free) platinum. […] In addition, the AUC0–24 of dFdCTP and the AUA0–23 (area under the adduct curve) ([Schellens et al, 1996]) of Pt-DNA adducts were calculated in WBC. For tipifarnib, Cmax, tmax and AUC0-12 were determined.
(§3) The primary pharmacokinetic parameters of interest for the statistical analyses were Cmax and AUC. Only data from patients who completed the pharmacokinetic blood sampling during the first and second cycles and had no dose reduction were included in the analyses. […] A significance level of 0.05 was used for all analyses. The statistical analyses were performed using the SAS statistical software program (version 6.12; SAS Institute, Inc., Cary, NC, USA).

[2] = dFdCTP in white blood cells with or without tipifarnib; type: in vivo, human; conditions: mononuclear blood cell, adjusted to 750 mg m^−2 gemcitabine
plasma proteins = conditions: cited from earlier work
[3] = system: patients with advanced solid tumours; test: Phase I trial: treatment emergent grade 3 or 4 haematological and nonhaematological toxicities (NCI-CTC v2.0), all cycles; conditions: human, in vivo
Method: Tipifarnib was supplied by Johnson & Johnson Pharmaceutical Research and Development as 100 mg tablets. […] Tipifarnib was administered orally twice daily, with intervals of 12 h. Tipifarnib was given on days 1–7 of each 21-day cycle. […] To minimise nephrotoxicity, a pre-and posthydration schedule was implemented on day 1. […] At least three patients were treated at each dose level. If DLT occurred in a patient during cycle 1, three additional patients were enrolled in that cohort. MTD was defined at which 2 or more out of 6 patients (2⩾6) experienced DLT. […] These toxicities were only considered DLT if they occurred during the first cycle of treatment. In the case of grade 3–4 haematological toxicities, the dose of gemcitabine was adjusted in the next cycle based on nadir blood cell counts. Dose adjustments were relative to the starting dose of gemcitabine received in the previous cycle of therapy. If the nadir granulocyte count was >500 μl^−1 and the nadir platelet count >50 000 μl^−1, 100% of the planned gemcitabine dose was administered. […] The administration of tipifarnib was discontinued when haematological DLT occurred. After recovery to at least grade 1, tipifarnib was reinstituted at the same dose level in conjunction with a dose modification of gemcitabine. If a patient continued to experience haematological DLT after one dose modification of gemcitabine, the dose of tipifarnib was decreased with 100 mg b.i.d. If at any time the dose of tipifarnib was to be reduced to <100 mg b.i.d. or if retreatment needed to be delayed >2 weeks after the scheduled restarting of a cycle, the patient went off-study. […] If grade 4 nonhaematological toxicities occurred, patients went off-study. No dose adjustments were made for transaminase elevation unless associated with clinical signs or symptoms. […] If at any time the dose of tipifarnib was to be reduced to <100 mg b.i.d. or if retreatment needed to be delayed >2 weeks after the scheduled restarting of a cycle, the patient went off-study.
Complete patient history, physical examination, haematology, chemistry, urinalysis and electrocardiogram were performed at baseline and before each cycle of treatment. Physical examination, haematology and chemistry were also evaluated on days 8 and 15 of each cycle. Audiometry was performed at baseline and was repeated if clinically indicated. Indicator lesions were measured before start of treatment and every two cycles, as a basis for the assessment of activity of the treatment. All toxicities observed were graded according to the Common Toxicity Criteria ([NCI-CTC, Version 2.0, 1998]).

[4] = system: patients with advanced solid tumours; test: Phase I trial: dose-limiting toxicities in cycle 1 and maximum tolerated dose; type: in vivo, human
Method: Tipifarnib was supplied by Johnson & Johnson Pharmaceutical Research and Development as 100 mg tablets. […] Tipifarnib was administered orally twice daily, with intervals of 12 h. Tipifarnib was given on days 1–7 of each 21-day cycle. […] To minimise nephrotoxicity, a pre-and posthydration schedule was implemented on day 1. […] At least three patients were treated at each dose level. If DLT occurred in a patient during cycle 1, three additional patients were enrolled in that cohort. MTD was defined at which 2 or more out of 6 patients (2⩾6) experienced DLT. […] These toxicities were only considered DLT if they occurred during the first cycle of treatment. In the case of grade 3–4 haematological toxicities, the dose of gemcitabine was adjusted in the next cycle based on nadir blood cell counts. Dose adjustments were relative to the starting dose of gemcitabine received in the previous cycle of therapy. If the nadir granulocyte count was >500 μl^−1 and the nadir platelet count >50 000 μl^−1, 100% of the planned gemcitabine dose was administered. […] The administration of tipifarnib was discontinued when haematological DLT occurred. After recovery to at least grade 1, tipifarnib was reinstituted at the same dose level in conjunction with a dose modification of gemcitabine. […]

[5] = Plasma pharmacokinetics of tipifarnib (HPLC-UV) as monotherapy or with gemcitabine/cisplatin; type: in vivo, human; conditions: single 200 mg oral dose
Method: as §1, §2, §3

[6] = cited from earlier work
[7] = combination with tipifarnib given for 14 days

Structure (SMILES): N.N.[Cl][Pt][Cl] [cisplatin]
MTD (cancer patients; [7]): 75 mg m^−2

Structure (SMILES): Nc1ccn([C@@H]2O[C@H](COP(=O)(O)OP(=O)(O)OP(=O)(O)O)[C@@H](O)C2(F)F)c(=O)n1 [dFdCTP]
Pharmacokinetic (drug–drug) interaction ([1]; cycle 1 (with tipifarnib) vs cycle 2 (without tipifarnib), Cmax and AUC, ANOVA): no drug–drug interaction | AUC0–24, mean (s.d.) ([2]; Gem/cis without tipifarnib): 18.3 (40.9) ^i h nanomol mg protein^−1 | AUC0–24, mean (s.d.) ([2]; Gem/cis+tipifarnib 100–300 mg): 14.7 (22.9) ^j h nanomol mg protein^−1

AUC(0-t) ([1]; human, in vivo): 237 µg·h/mL | Cmax ([1]; human, in vivo): 25600 ng/mL | Pharmacokinetic (drug–drug) interaction ([1]; in vivo): significant difference
Structure (SMILES): O=c1ccn([C@@H]2O[C@H](CO)[C@@H](O)C2(F)F)c(=O)[nH]1 [dFdU, 2′, 2′ -difluoro-2′-deoxy-uridine]

Structure (SMILES): Nc1ccn([C@@H]2O[C@H](CO)[C@@H](O)C2(F)F)c(=O)n1 [gemcitabine]
AUC(0-t) ([1]; human, in vivo): 6.71 µg·h/mL | Cmax ([1]; human, in vivo): 12500 ng/mL | Median tmax ([1]; human, in vivo, iv): 30 min | Pharmacokinetic (drug–drug) interaction ([1]; in vivo): no drug–drug interaction | Binding to plasma proteins (plasma proteins; ref Shipley et al, 1992): negligible | Patients with a dose reduction owing to haematological toxicities [3]: 16% | Patients with a dose reduction owing to nonhaematological toxicities [3]: 13% | MTD (cancer patients; [7]): 1000 mg m^−2 | Maximum tolerated dose (MTD) ([4]; i.v., in the combination of tipifarnib, gemcitabine (days 1 and 8) and cisplatin (day 1), 21-day cycle (dose level 3)): 1000 mg m^−2

Structure (SMILES): Cn1cncc1[C@@](N)(c1ccc(Cl)cc1)c1ccc2c(c1)c(-c1cccc(Cl)c1)cc(=O)n2C [tipifarnib]
Bound to plasma proteins (plasma proteins; ref Janssen Research Foundation, 2003): 99% | AUC(0-t) ([5]; human, tipifarnib as monotherapy (cycle 2 day 2), n=20, read-out: AUC0-12, mean (s.d.)): 2630 ng·h/mL | Cmax ([5]; human, tipifarnib as monotherapy (cycle 2 day 2), n=20, read-out: Cmax, mean (s.d.)): 499 ng/mL | Median tmax ([5]; tipifarnib as monotherapy (cycle 2 day 2), n=20): 3.0 h | AUC0-12, mean (s.d.) ([5]; with gemcitabine 750–1000 mg m^−2 and cisplatin 75–100 mg m^−2 (cycle 1 day 1), n=22): 2971 (2089) ^c h ng ml^−1 | Median tmax ([5]; with gemcitabine 750–1000 mg m^−2 and cisplatin 75–100 mg m^−2 (cycle 1 day 1), n=23): 2.1 h | Patients with a dose reduction owing to haematological toxicities [3]: 10% | Patients with a dose reduction owing to nonhaematological toxicities [3]: 3% | Recommended dose (cancer patients; continuous tipifarnib with gemcitabine 1000 mg m^−2 on days 1, 8 and 15 every 4 weeks, ref Patnaik et al, 2003): 200 mg b.i.d. | Dose up to which the regimen was safe (cancer patients; monotherapy, 7 consecutive days, cancer patients, ref Zujewski et al, 2000): at least 300 mg b.i.d. | MTD (cancer patients; tipifarnib for 14 days with gemcitabine days 1 and 8 and cisplatin day 1): 300 mg b.i.d. | Preclinical interaction of the combination ([6]; tipifarnib combined with cisplatin, ref Skrzat et al, 1999): additive | Preclinical interaction of the combination ([6]; tipifarnib combined with gemcitabine, ref Janssen Research Foundation, 2003): synergy | Maximum tolerated dose (MTD) ([4]; oral, days 1–7 of each 21-day cycle, in combination with gemcitabine and cisplatin (dose level 3)): 200 mg b.i.d.
